From publication PMC9029360, “Cyclooxygenase-Inhibiting Platinum(IV) Prodrugs with Potent Anticancer Activity” (Pharmaceutics, 2022)
Like-named read-outs stand apart in the source and are kept apart here.

Columns and labels:
[1] = tested on: HT29 colon cancer cell line; assay: In vitro cytotoxicity MTT assay, HT29 colon; assay type: cell-based; conditions: n = 3
U87 glioblastoma [2] = assay: In vitro cytotoxicity MTT assay, U87 glioblastoma; assay type: cell-based; conditions: 72 h drug exposure, n = 3
MCF-7 breast [3] = assay: In vitro cytotoxicity MTT assay, MCF-7 breast; assay type: cell-based; conditions: n = 3
A2780 ovarian [4] = assay: In vitro cytotoxicity MTT assay, A2780 ovarian; assay type: cell-based; conditions: 72 h drug exposure, n = 3
H460 lung [5] = assay: In vitro cytotoxicity MTT assay, H460 lung; assay type: cell-based; conditions: n = 3
A431 skin [6] = assay: In vitro cytotoxicity MTT assay, A431 skin; assay type: cell-based; conditions: n = 3
[7] = tested on: Du145 prostate cancer cell line; assay: In vitro cytotoxicity MTT assay, Du145 prostate; assay type: cell-based; conditions: n = 3
BE2-C neuroblastoma [8] = assay: In vitro cytotoxicity MTT assay, BE2-C neuroblastoma; assay type: cell-based; conditions: 72 h drug exposure, n = 3
SJ-G2 glioblastoma [9] = assay: In vitro cytotoxicity MTT assay, SJ-G2 glioblastoma; assay type: cell-based; conditions: 72 h drug exposure, n = 3
MIA pancreas [10] = assay: In vitro cytotoxicity MTT assay, MIA pancreas; assay type: cell-based; conditions: 72 h drug exposure, n = 3
[11] = tested on: MCF10A breast cell line (non-tumour derived); assay: In vitro cytotoxicity MTT assay, non-tumour MCF10A breast; assay type: cell-based; conditions: MCF10A (non-cancerous), 72 h drug exposure, n = 3
[12] = tested on: cisplatin-resistant ADDP ovarian (subclone of A2780 cell line); assay: In vitro cytotoxicity MTT assay, cisplatin-resistant ADDP ovarian; assay type: cell-based; conditions: ADDP (cisplatin-resistant), MTT, 72 h drug exposure, n = 3
[13] = Lipophilicity by RP-HPLC (log kw); assay type: physicochemical; conditions: capacity factor extrapolated to 100% water
Experimental: HPLC experiments were executed on an Agilent (Melbourne, Australia) Technologies 1260 Infinity instrument equipped with a Phenomenex (Sydney, Australia) Onyx^TM Monolithic C18 reverse phase column (100 × 4.6 mm, 130 Å). The mobile phase was comprised of 0.06% TFA in water (solvent A) and 0.06% TFA in an acetonitrile-water mixture (9:1) (solvent B). A sample injection volume of 10 µL was used at a flow rate of 1 mL/min and eluted over a gradient of 0–100% for 15 min. A PDA was used to detect the eluting peaks at 254 nm. Lipophilicity experiments to determine logkw values were undertaken following previously published methods. Rather than a gradient, different isocratic ratios ranging from 28–56% of solvent B were employed and the retention times measured for each complex. Potassium iodide was used as an external dead volume marker to determine the dead time of the column. The following equation was used to calculate the capacity factors:(1) k=tr−t0/t0 where k is the capacity factor, tr is the retention time of the analyte, and t0 is the dead time. Following this, log k was plotted against the percentage of ACN. Five different concentrations of ACN were used to produce a linear plot comprised of R^2 > 0.99. This graph produced the following equation:(2) logk=Sφ+logkw where S is the slope, φ is the % ACN, and the y-intercept, represented as logkw , is the capacity factor of the compound in 100% water.
Lipophilicity studies were carried out to determine the logkw of each complex. This was ascertained through a RP-HPLC based approach whereby complexes were eluted at several isocratic ratios. In turn, retention times were employed as in Equation (1), where the capacity factor (k) was calculated. The log k value at each ratio was then plotted against the percentage of the organic solvent used in solvent B, producing a linear equation that allowed for logkw to be extrapolated (Figure S43). The logkw value represents the retention factor in a 100% aqueous solution; thus, higher values indicate more lipophilic compounds. While this method for determining lipophilicity is slightly different from the shake-flask method, it has been used previously to compare a series of complexes that are structurally similar and is fitting for this group of complexes.

[14] = tested on: HT29 colon cancer cell line; conditions: MTT, 72 h, cited from earlier work
U87 glioblastoma [15] = conditions: MTT, 72 h, cited from earlier work
MCF-7 breast [16] = conditions: MTT, 72 h, cited from earlier work
A2780 ovarian [17] = conditions: MTT, 72 h, cited from earlier work
H460 lung [18] = conditions: MTT, 72 h, cited from earlier work
A431 skin [19] = conditions: MTT, 72 h, cited from earlier work
[20] = tested on: Du145 prostate cancer cell line; conditions: MTT, 72 h, cited from earlier work
BE2-C neuroblastoma [21] = conditions: MTT, 72 h, cited from earlier work
SJ-G2 glioblastoma [22] = conditions: MTT, 72 h, cited from earlier work
MIA pancreas [23] = conditions: MTT, 72 h, cited from earlier work
[24] = tested on: cisplatin-resistant ADDP ovarian (subclone of A2780 cell line); conditions: MTT, 72 h, ref [2] Macias et al., Eur. J. Chem. 2015; cited from earlier work
[25] = tested on: MCF10A breast cell line (non-tumour derived); conditions: MTT, 72 h, cited from earlier work
[26] = ref [2] Macias et al., Eur. J. Chem. 2015
[27] = ref [1] Deo et al., Dalton Trans. 2019

SMILES | GI50 ([1]; 72 h drug exposure) [nM] | GI50 (U87 glioblastoma [2]) [nM] | GI50 (MCF-7 breast [3]; 72 h drug exposure) [nM] | GI50 (A2780 ovarian [4]) [nM] | GI50 (H460 lung [5]; 72 h drug exposure) [nM] | GI50 (A431 skin [6]; 72 h drug exposure) [nM] | GI50 ([7]; 72 h drug exposure) [nM] | GI50 (BE2-C neuroblastoma [8]) [nM] | GI50 (SJ-G2 glioblastoma [9]) [nM] | GI50 (MIA pancreas [10]) [nM] | GI50 [11] [nM] | GI50 [12] [nM] | Log kw [13] | also measured
Cc1c(C)c2cccnc2c2ncccc12.N[C@H]1CCCC[C@@H]1N.O=[N+]([O-])[O-].O=[N+]([O-])[O-].[OH-].[OH-].[Pt+4] [56MESS(IV)] | 36 ± 7 | 190 ± 23 | 480 ± 140 | 56 ± 7.1 | 190 ± 150 | 120 ± 22 | 15 ± 2.6 | 240 ± 22 | 210 ± 45 | 43 ± 2.5 | 61 ± 7.3 | 170 ± 120 | – | –
N[C@H]1CCCC[C@@H]1N.[Cl-].[Cl-].[Pt+2].c1cnc2c(c1)ccc1cccnc12 [PHENSS(II)] | 87 ± 27 | 1200 ± 340 | 250 ± 41 | 290 ± 37 | 300 ± 32 | 340 ± 100 | 110 ± 27 | 390 ± 60 | 440 ± 55 | 240 ± 22 | 240 ± 60 | 230 ± 49 | – | –
Cc1c(C)c2cccnc2c2ncccc12.N[C@H]1CCCC[C@@H]1N.[Cl-].[Cl-].[Pt+2] [56MESS(II)] | 15 ± 6.2 | 76 ± 8.7 | 33 ± 12 | 39 ± 7.7 | 28 ± 4.7 | 36 ± 11 | 10 ± 1.3 | 86 ± 3 | 150 | 22 | 25 ± 10 | 27 ± 4.1 | – | –
CC(=O)Oc1ccccc1C(=O)[O-].Cc1c(C)c2cccnc2c2ncccc12.N[C@H]1CCCC[C@@H]1N.O=[N+]([O-])[O-].O=[N+]([O-])[O-].[OH-].[Pt+4] [compound 4, [Pt(56Me2Phen)(SSDACH)(Aspirin)(OH)](NO3)2] | 7 ± 1 | 24 | 36 ± 10 | 22 | 15 ± 1 | 31 | 3 | 98 ± 21 | 63 ± 6 | 8 ± 1 | 9 ± 2 | 12 | 0.65 | –
O=C1[O][Pt]2([NH][C@@H]3CCCC[C@H]3[NH]2)[O]C1=O [Oxaliplatin, oxaliplatin] | – | – | – | – | – | – | – | – | – | – | – | – | – | GI50 [14, 26]: 900 ± 200 nM; GI50 (U87 glioblastoma [15]; [26]): 1800 ± 200 nM; GI50 (MCF-7 breast [16]; [26]): 500 ± 100 nM; GI50 (A2780 ovarian [17]; [26]): 160 nM; GI50 (H460 lung [18]; [26]): 1600 ± 100 nM; GI50 (A431 skin [19]; [26]): 4100 ± 500 nM; GI50 [20, 26]: 2900 ± 400 nM; GI50 (BE2-C neuroblastoma [21]; [26]): 900 ± 200 nM; GI50 (SJ-G2 glioblastoma [22]; [26]): 3000 ± 1200 nM; GI50 (MIA pancreas [23]; [26]): 900 nM; GI50 [24]: 822 ± 130 nM
N[C@H]1CCCC[C@@H]1N.O=[N+]([O-])[O-].O=[N+]([O-])[O-].[OH-].[OH-].[Pt+4].c1cnc2c(c1)ccc1cccnc12 [PHENSS(IV)] | – | – | – | – | – | – | – | – | – | – | – | – | – | GI50 [14, 27]: 710 ± 300 nM; GI50 (U87 glioblastoma [15]; [27]): 4900 ± 610 nM; GI50 (MCF-7 breast [16]; [27]): 16000 nM; GI50 (A2780 ovarian [17]; [27]): 800 ± 84 nM; GI50 (H460 lung [18]; [27]): 1700 ± 200 nM; GI50 (A431 skin [19]; [27]): 4300 ± 530 nM; GI50 [20, 27]: 310 ± 92 nM; GI50 (BE2-C neuroblastoma [21]; [27]): 3000 ± 530 nM; GI50 (SJ-G2 glioblastoma [22]; [27]): 1700 nM; GI50 (MIA pancreas [23]; [27]): 3400 nM; GI50 [25, 27]: 1700 nM
N.N.O=C([O-])C1(C(=O)[O-])CCC1.[Pt+2] [Carboplatin, carboplatin] | – | – | – | – | – | – | – | – | – | – | – | – | – | GI50 [14, 26]: > 50000 nM; GI50 (U87 glioblastoma [15]; [26]): > 50000 nM; GI50 (MCF-7 breast [16]; [26]): > 50000 nM; GI50 (A2780 ovarian [17]; [26]): 9200 ± 2900 nM; GI50 (H460 lung [18]; [26]): 14000 ± 1000 nM; GI50 (A431 skin [19]; [26]): 24300 nM; GI50 [20, 26]: 14700 nM; GI50 (BE2-C neuroblastoma [21]; [26]): 18700 nM; GI50 (SJ-G2 glioblastoma [22]; [26]): 5700 nM; GI50 (MIA pancreas [23]; [26]): > 50000 nM; GI50 [25, 26]: > 50000 nM; GI50 [24]: > 50000 nM
COc1ccc2c(c1)c(CC(=O)O)c(C)n2C(=O)c1ccc(Cl)cc1 [Indomethacin, indomethacin] | – | > 50000 | – | – | – | – | – | – | > 50000 | > 50000 | – | – | – | GI50 ([1]; Homo sapiens, HT-29, 72 h drug exposure): > 50000 nM; GI50 (MCF-7 breast [3]; Homo sapiens, MCF7, 72 h drug exposure): > 50000 nM; GI50 (A2780 ovarian [4]; Homo sapiens): 5700 ± 800 nM; GI50 (H460 lung [5]; Homo sapiens, NCI-H460, 72 h drug exposure): > 50000 nM; GI50 (A431 skin [6]; Homo sapiens, A-431, 72 h drug exposure): > 50000 nM; GI50 ([7]; Homo sapiens, DU-145, 72 h drug exposure): > 50000 nM; GI50 (BE2-C neuroblastoma [8]; Homo sapiens, BE(2)-C): > 50000 nM; GI50 ([11]; Homo sapiens, MCF-10A): > 50000 nM; GI50 ([12]; Homo sapiens, A2780): > 50000 nM
COc1ccc2c(c1)c(CC(=O)[O][Pt-2]13([OH])([NH2+]C4CCCCC4[NH2+]1)[n+]1cccc4ccc5ccc[n+]3c5c41)c(C)n2C(=O)c1ccc(Cl)cc1.O=[N+]([O-])[O-].O=[N+]([O-])[O-] (centres unmarked) [compound 1, [Pt(Phen)(SSDACH)(Indomethacin)(OH)](NO3)2] | 83 ± 40 | – | 740 ± 230 | 390 ± 87 | 370 ± 55 | 400 ± 84 | 160 ± 54 | – | 970 ± 290 | 330 | 340 ± 100 | 350 ± 81 | 1.08 | –
COc1ccc2c(c1)c(CC(=O)[O][Pt-2]13([OH])([NH2+]C4CCCCC4[NH2+]1)[n+]1cccc4c(C)c(C)c5ccc[n+]3c5c41)c(C)n2C(=O)c1ccc(Cl)cc1.O=[N+]([O-])[O-].O=[N+]([O-])[O-] (centres unmarked) [compound 2, [Pt(56Me2Phen)(SSDACH)(Indomethacin)(OH)](NO3)2] | 13 ± 3.6 | 47 ± 4.9 | 37 ± 2.3 | 34 ± 8.6 | 22 ± 4.2 | 40 ± 14 | 7.5 ± 3.6 | 130 ± 41 | 170 ± 19 | 21 ± 2 | 23 ± 8.2 | 24 ± 6.1 | 1.28 | –
